Measured values published in US4108857A, “Imidazolylmethyl methanobenzazocines” (Sterling Drug Inc., priority 1977, dated 1978).
Converted amounts (≈) assume the structure as drawn. Like-named read-outs stand apart in the source and are kept apart here.

How the values were obtained:
[1] = tested on: maximal electroshock seizures; experiment: anti-maximal electroshock seizure test in mice; type: in vivo; details: for ED50: Mus musculus
Description: The preferred species of this invention, i.e. the compounds having in free base form Formula II, are useful as analgesic agents administered orally or parenterally to humans. […] In the anti-maximal electroshock seizure test, the compounds were administered intraperitoneally or perorally 30 or 90 minutes prior to the application of 50 milliamperes of alternating current through corneal electrodes. Shock duration was 0.3 second. The criterion for anticonvulsant activity was the absence of the tonic hind leg extensor component of the seizure. In the anti-maximal pentylenetetrazol seizure test, the compounds were given intraperitoneally 30 or 90 minutes prior to the rapid intravenous injection of 50 mg. per kg. of pentylenetetrazol. Failure to display tonic hind leg extensor seizures was again the criterion for drug action. Representative results, expressed as ED50 (mg./kg.), which were obtained with my new compounds in these two tests are as follows: […]

[2] = tested on: maximal pentylenetetrazol seizures; experiment: anti-maximal pentylenetetrazol seizure test in mice; type: in vivo; details: Mus musculus
[3] = tested on: minimal pentylenetetrazol seizures; experiment: anticonvulsant test against minimal pentylenetetrazol seizures; type: in vivo, mice; details: Mus musculus, oral, pentylenetetrazol 32.5 mg./kg. intravenously
Description: In anticonvulsant studies, against minimal pentylenetetrazol seizures, wherein the dose of pentylenetetrazol was only 32.5 mg./kg. (intravenously) and the ensuing convulsions were clonic, without a tonic hind leg extensor component, the oral ED50 values were: 30 minutes post-medication, 15 ± 4 mg./kg.; 90 minutes post-medication, 37 ± 6 mg./kg.

mice [4] = experiment: inclined screen test in mice (skeletal muscle relaxation); type: in vivo; details: Mus musculus
mice [5] = experiment: psychomotor activity studies in mice; type: in vivo
mice [6] = experiment: diuresis in mice; type: in vivo; details: 12.5 mg./kg. and 25 mg./kg. i.p.
monkeys = experiment: toxicology study in monkeys (oral, daily for 5 days); type: in vivo
Description: (§1) In a toxicology study, monkeys were medicated orally with 5 mg./kg. and 25 mg./kg. of the product of Example 1A each day for 5 days. […] There was considerable variability among the monkeys in the magnitude of the response. Symptoms lasted 2 to 5 hours. […] Blood SGO-T, alkaline phosphatase, and BUN were all normal.

acute toxicity, mouse = details: in vivo; for LD50 at 168 h: 7 day
Description: as §1

acute toxicity, rat = details: in vivo; for LD50 at 168 h: 7 day
Description: as §1

humans = experiment: analgesic use in humans; type: in vivo
Description: For example, administered orally, the effective dosage of the racemic cis form of this compound in humans has been determined to be about 0.1 to 0.5 mg. of drug per kg. of body weight per day, at 5-25 mg. per dose; preferably about 0.2 to 0.4 mg./kg./day, for instance a total of […] at 20 mg./dose.

pH of solution = type: physicochemical; details: hydrochloride; 0.42 ml. of N/2 hydrochloric acid and 0.58 ml. of water
[7] = precipitation on gradual pH adjustment of the aqueous solution; type: physicochemical; details: 1 percent solution, N/10 sodium hydroxide solution, pH 7.0
[8] = precipitation on diluting ethyl alcohol solution with four volumes of water; type: physicochemical; details: 5 percent (w/v) solution in 95 percent ethyl alcohol
[9] = solubility in water or aqueous acid; details: dilute hydrochloric acid
[10] = 5 mg./kg. orally each day for 5 days
[11] = iv, I.V., read-out: LD50 ± s.e.

Question: With `C[C@H]1[C@H]2Cc3ccccc3[C@]1(C)CCN2CC1CC1` (relative stereo) [Example 1A, racemic 1,2,3,4,5,6-hexahydro-3-cyclopropylmethyl-cis-6,11-dimethyl-2,6-methano-3-benzazocine] as the molecule, how does the “Anti-Maximal Electroshock ED50” value ([1]; IP, 90') read?
Answer: The value was “INACT”.

Question: And the ED50 ([1]; 0.5 h, IP, 30')?
Answer: Its ED50 is 11.2 ± 2 mg/kg.

Question: What about the ED50 ([1]; 0.5 h, PO, 30') of the same molecule?
Answer: Its ED50 is 26.2 ± 7 mg/kg.

Question: And the ED50 ([1]; 1.5 h, PO, 90')?
Answer: The ED50 was 35.5 ± 3 mg/kg.

Question: What about the ED50 ([2]; 0.5 h, IP, 30') of the same molecule?
Answer: Its ED50 is 2.3 ± 7 mg/kg.

Question: What about the ED50 ([2]; 0.5 h, PO, 30') of the same molecule?
Answer: Its ED50 is 3.3 ± 0.8 mg/kg.

Question: What about the ED50 ([2]; 1.5 h, IP, 90') of the same molecule?
Answer: Its ED50 is 5.3 ± 10 mg/kg.

Question: What about the ED50 ([2]; 1.5 h, PO, 90') of the same molecule?
Answer: Its ED50 is 6.2 ± 1 mg/kg.

Question: And the ED50 ([3]; 0.5 h, 30 minutes post-medication)?
Answer: Its ED50 is 15 ± 4 mg/kg.

Question: What about the ED50 ([3]; 1.5 h, 90 minutes post-medication) of the same molecule?
Answer: The ED50 was 37 ± 6 mg/kg.

Question: What about the ED50 (mice [4]; 1 h, oral, sixty minutes after medication, read-out: dose at which 50 percent of the mice had fallen from a 60° inclined screen) of the same molecule?
Answer: The ED50 was 38.2 ± 11 mg/kg.

Question: What about the ED50 (mice [4]; ip, intraperitoneal, read-out: ED50, 60° inclined screen) of the same molecule?
Answer: The ED50 was 17.2 mg/kg.

Question: And the “toxic signs at high dose” value (mice [5]; 128 mg./kg. p.o.)?
Answer: Its value is “Ataxia, loss of righting reflex, and death occurred”.

Question: And the psychomotor activity pattern (mice [5]; 8-128 mg./kg. p.o.)?
Answer: Its psychomotor activity pattern is “stimulation at lower doses and depression at high doses”.

Question: What about the diuresis (mice [6]) of the same molecule?
Answer: Its diuresis is “significant diuresis”.

Question: And the urine produced (mice [6])?
Answer: Its urine produced is “dilute urine without electrolyte concentration”.

Question: What about the symptoms (monkeys; [10]) of the same molecule?
Answer: The symptoms was “Some ataxia with a decrease in activity”.

Question: And the tolerability (monkeys; [10])?
Answer: Its tolerability is “well tolerated”.

Question: What about the symptoms (monkeys; 25 mg./kg. orally each day for 5 days) of the same molecule?
Answer: Its symptoms is “more marked decrease in spontaneous activity along with ataxia and salivation”.

Question: And the BUN (monkeys; oral)?
Answer: Its BUN is “normal”.

Question: What about the “Blood SGO-T” value (monkeys; oral) of the same molecule?
Answer: Its value is “normal”.

Question: And the alkaline phosphatase (monkeys; oral)?
Answer: The alkaline phosphatase was “normal”.

Question: What about the body weight (monkeys; oral) of the same molecule?
Answer: Its body weight is “Some weight loss occurred”.

Question: And the LD50 at 24 h (acute toxicity, mouse; ip, I.P.)?
Answer: Its LD50 at 24 h is 65 ± 7 mg/kg.

Question: And the LD50 at 168 h (acute toxicity, mouse; ip, I.P.)?
Answer: The LD50 at 168 h was 65 ± 7 mg/kg.

Question: What about the LD50 at 24 h (acute toxicity, mouse; iv, I.V.) of the same molecule?
Answer: Its LD50 at 24 h is 20 ± 1 mg/kg.

Question: What about the LD50 at 168 h (acute toxicity, mouse; iv, I.V.) of the same molecule?
Answer: Its LD50 at 168 h is 20 ± 1 mg/kg.

Question: What about the LD50 at 24 h (acute toxicity, mouse; po, P.O.) of the same molecule?
Answer: The LD50 at 24 h was 155 ± 17 mg/kg.

Question: And the LD50 at 168 h (acute toxicity, mouse; po, P.O.)?
Answer: The LD50 at 168 h was 155 ± 17 mg/kg.

Question: What about the LD50 at 24 h (acute toxicity, rat; [11]) of the same molecule?
Answer: Its LD50 at 24 h is 17 ± 1 mg/kg.

Question: And the LD50 at 168 h (acute toxicity, rat; [11])?
Answer: The LD50 at 168 h was 17 ± 1 mg/kg.

Question: What about the LD50 at 24 h (acute toxicity, rat; po, P.O., read-out: ALD50) of the same molecule?
Answer: Its LD50 at 24 h is 200 mg/kg.

Question: And the LD50 at 168 h (acute toxicity, rat; po, P.O., read-out: ALD50)?
Answer: Its LD50 at 168 h is 200 mg/kg.

Question: What about the “psychotomimetic effects in humans” value (humans; analgesically effective doses) of the same molecule?
Answer: Its value is “very few, if any, psychotomimetic effects”.

Question: And the “central nervous system effects in humans” value (humans; effective therapeutic analgesic doses)?
Answer: Its value is “only minimal central nervous system effects”.

Question: And the “analgesic activity in humans” value (humans; humans)?
Answer: The value was “strong analgesic”.

Question: What about the “pH of 1 percent solution in dilute hydrochloric acid” value (pH of solution) of the same molecule?
Answer: The value was 1.5.

Question: And the “precipitation on adjusting to pH 7.0” value [7]?
Answer: Its value is “no precipitate formed”.

Question: And the “precipitation on dilution with four volumes of water” value [8]?
Answer: Its value is “a precipitate formed”.

Question: And the solubility [9]?
Answer: The solubility was 10 mg/mL (≈ 39.2 mM).
